From ChEMBL document CHEMBL4118187, “In vitro activity of salicylamide derivatives against vancomycin-resistant enterococci” (Bioorg Med Chem Lett, 2018)
≈ marks a conversion by molar mass, not a printed value. Calls of active or inactive are those of the source. The rule behind the calls is not given here.

Tests used:
Enterococcus faecalis [1] = assay: Antibacterial activity against vancomycin-resistant Enterococcus faecalis 725B after 24 hrs; format: functional
Enterococcus faecalis [2] = assay: Antibacterial activity against vancomycin-resistant Enterococcus faecalis 342B in presence of vancomycin after 18 hrs by checkerboard assay; format: functional
Enterococcus faecalis [3] = assay: Antibacterial activity against vancomycin-resistant Enterococcus faecalis 368 after 24 hrs; format: functional; conditions: Enterococcus faecalis, 368, 24 h
Enterococcus faecalis [4] = assay: Antibacterial activity against vancomycin-resistant Enterococcus faecalis 342B assessed as tetracycline concentration causing additive effect after 18 hrs by checkerboard assay; format: functional
Enterococcus faecalis [5] = assay: Antibacterial activity against vancomycin-resistant Enterococcus faecalis 342B in presence of tetracycline after 18 hrs by checkerboard assay; format: functional
Enterococcus faecalis [6] = assay: Antibacterial activity against vancomycin-resistant Enterococcus faecalis 342B assessed as compound concentration causing additive effect after 18 hrs in presence of vancomycin by checkerboard assay; format: functional
Enterococcus faecalis [7] = assay: Antibacterial activity against vancomycin-resistant Enterococcus faecalis 342B assessed as compound concentration causing additive effect after 18 hrs in presence of tetracycline by checkerboard assay; format: functional
Enterococcus faecalis [8] = assay: Antibacterial activity against vancomycin-resistant Enterococcus faecalis 368 assessed as compound concentration causing additive effect after 18 hrs in presence of vancomycin after 18 hrs by checkerboard assay; format: functional
Enterococcus faecalis [9] = assay: Bacteriostatic activity against vancomycin-resistant Enterococcus faecalis 725B up to 24 hrs by time kill assay; format: functional, organism-based
Enterococcus faecalis [10] = assay: Antibacterial activity against vancomycin-resistant Enterococcus faecalis 342B after 24 hrs; format: functional
Enterococcus faecalis [11] = assay: Antibacterial activity against vancomycin-resistant Enterococcus faecalis 368 assessed as vancomycin concentration causing additive effect after 18 hrs after 18 hrs by checkerboard assay; format: functional
Enterococcus faecalis [12] = assay: Antibacterial activity against vancomycin-resistant Enterococcus faecalis 368 in presence of tetracycline after 18 hrs by checkerboard assay; format: functional
Enterococcus faecalis [13] = assay: Antibacterial activity against vancomycin-resistant Enterococcus faecalis 368 in presence of vancomycin after 18 hrs by checkerboard assay; format: functional
Enterococcus faecalis [14] = assay: Antibacterial activity against vancomycin-resistant Enterococcus faecalis 725B in presence of vancomycin after 18 hrs by checkerboard assay; format: functional
Enterococcus faecalis [15] = assay: Antibacterial activity against vancomycin-resistant Enterococcus faecalis 725B in presence of ciprofloxacin after 18 hrs by checkerboard assay; format: functional
Enterococcus faecalis [16] = assay: Antibacterial activity against vancomycin-resistant Enterococcus faecalis 725B assessed as ciprofloxacin concentration causing additive effect after 18 hrs by checkerboard assay; format: functional
Enterococcus faecalis [17] = assay: Antibacterial activity against vancomycin-resistant Enterococcus faecalis 725B in presence of tetracycline after 18 hrs by checkerboard assay; format: functional
Enterococcus faecalis [18] = assay: Antibacterial activity against vancomycin-susceptible Enterococcus faecalis ATCC 29212 after 24 hrs; format: functional; conditions: ATCC 29212, 24 h
Enterococcus faecalis [19] = assay: Antibacterial activity against vancomycin-resistant Enterococcus faecalis 368 assessed as tetracycline concentration causing additive effect after 18 hrs after 18 hrs by checkerboard assay; format: functional
Enterococcus faecalis [20] = assay: Antibacterial activity against vancomycin-resistant Enterococcus faecalis 342B assessed as vancomycin concentration causing additive effect after 18 hrs by checkerboard assay; format: functional
Enterococcus faecalis [21] = assay: Antibacterial activity against vancomycin-resistant Enterococcus faecalis 725B assessed as compound concentration causing additive effect after 18 hrs in presence of ciprofloxacin by checkerboard assay; format: functional
Enterococcus faecalis [22] = assay: Bacteriostatic activity against vancomycin-resistant Enterococcus faecalis 342B up to 24 hrs by time kill assay; format: functional, organism-based
Enterococcus faecalis [23] = assay: Antibacterial activity against vancomycin-resistant Enterococcus faecalis 368 assessed as compound concentration causing additive effect after 18 hrs in presence of tetracycline after 18 hrs by checkerboard assay; format: functional
[24] = Cytotoxicity against human THP1 cells after 24 hrs by LDH release assay; format: cell-based; conditions: THP-1 cells, read-out: LD50
Enterococcus faecalis [25] = assay: Antibacterial activity against vancomycin-resistant Enterococcus faecalis 368 assessed as vancomycin concentration causing synergistic effect after 18 hrs by checkerboard assay; format: functional
Enterococcus faecalis [26] = assay: Antibacterial activity against vancomycin-resistant Enterococcus faecalis 368 assessed as compound concentration causing synergistic effect after 18 hrs in presence of vancomycin by checkerboard assay; format: functional
[27] = Selectivity index, ratio of LD50 for human THP1 cells to MIC for vancomycin-resistant Enterococcus faecalis 342B; format: toxicity; conditions: THP-1 cells, read-out: Selectivity Index

Compound	MBC (Enterococcus faecalis [1])	MIC (Enterococcus faecalis [1])	MBC (Enterococcus faecalis [3])	MIC (Enterococcus faecalis [3])	MBC (Enterococcus faecalis [10])	MIC (Enterococcus faecalis [10])	MBC (Enterococcus faecalis [18])	MIC (Enterococcus faecalis [18])	also measured
O=C(Nc1ccc([N+](=O)[O-])cc1)c1cc(Cl)ccc1O	6.83 µM (≈ 2 µg/mL)	3.42 µM (≈ 1 µg/mL)	> 874 µM	13.7 µM (≈ 4 µg/mL)	6.83 µM (≈ 2 µg/mL)	1.71 µM (≈ 0.5 µg/mL)	6.83 µM (≈ 2 µg/mL)	0.85 µM (≈ 0.249 µg/mL)	FIC (Enterococcus faecalis [2]): 1 - 2.25; Activity (Enterococcus faecalis [4]): 16 µg/mL; FIC (Enterococcus faecalis [5]): 0.75 - 1.25; Activity (Enterococcus faecalis [6]): 0.063 µg/mL; Activity (Enterococcus faecalis [7]): 0.5 µg/mL; Activity (Enterococcus faecalis [8]): 0.063 µg/mL; Activity (Enterococcus faecalis [9]): Active; Activity (Enterococcus faecalis [11]): 512 µg/mL; FIC (Enterococcus faecalis [12]): 0.75 - 1.25; FIC (Enterococcus faecalis [13]): 0.625 - 1.25; FIC (Enterococcus faecalis [14]): 1.063 - 1.5; FIC (Enterococcus faecalis [15]): 1 - 1.25; Activity (Enterococcus faecalis [16]): 64 µg/mL; FIC (Enterococcus faecalis [17]): 1.032 - 2.125; Activity (Enterococcus faecalis [19]): 16 µg/mL; Activity (Enterococcus faecalis [20]): 64 µg/mL; Activity (Enterococcus faecalis [21]): 0.008 µg/mL; Activity (Enterococcus faecalis [22]): Active; Activity (Enterococcus faecalis [23]): 1 µg/mL
CN[C@H](CC(C)C)C(=O)N[C@H]1C(=O)N[C@@H](CC(N)=O)C(=O)N[C@H]2C(=O)N[C@H]3C(=O)N[C@H](C(=O)N[C@H](C(=O)O)c4cc(O)cc(O)c4-c4cc3ccc4O)[C@H](O)c3ccc(c(Cl)c3)Oc3cc2cc(c3O[C@@H]2O[C@H](CO)[C@@H](O)[C@H](O)[C@H]2O[C@H]2C[C@](C)(N)[C@H](O)[C@H](C)O2)Oc2ccc(cc2Cl)[C@H]1O [VANCOMYCIN]	–	706 µM (≈ 1020 µg/mL)	–	353 µM (≈ 512 µg/mL)	–	353 µM (≈ 512 µg/mL)	–	–	–
CC1(C)S[C@@H]2[C@H](NC(=O)[C@H](N)c3ccccc3)C(=O)N2[C@H]1C(=O)O [AMPICILLIN]	5.72 µM (≈ 2 µg/mL)	5.72 µM (≈ 2 µg/mL)	–	–	–	–	–	–	–
CC(C)[C@H](NC(=O)c1ccc(Cl)cc1O)C(=O)Nc1ccc(Br)cc1	> 601 µM	> 601 µM	> 601 µM	> 601 µM	> 601 µM	> 601 µM	> 601 µM	> 601 µM	–
CC(C)[C@H](NC(=O)c1cc(Cl)ccc1O)C(=O)Nc1ccc(C(F)(F)F)cc1	> 617 µM	> 617 µM	> 617 µM	> 617 µM	> 617 µM	> 617 µM	19.3 µM (≈ 8 µg/mL)	19.3 µM (≈ 8 µg/mL)	–
CC(C)[C@H](NC(=O)OCc1ccccc1)C(=O)Oc1ccc(Cl)cc1C(=O)Nc1ccc(C(F)(F)F)cc1	> 466 µM	> 466 µM	> 466 µM	> 466 µM	> 466 µM	> 466 µM	> 466 µM	> 466 µM	–
CC(C)[C@H](NC(=O)OCc1ccccc1)C(=O)Oc1cc(Cl)ccc1C(=O)Nc1ccc(Cl)c(Cl)c1	> 465 µM	> 465 µM	> 465 µM	> 465 µM	> 465 µM	> 465 µM	> 465 µM	> 465 µM	–
Cc1ccc(NC(=O)[C@@H](NC(=O)c2cc(Cl)ccc2O)C(C)C)cc1	> 709 µM	> 709 µM	> 709 µM	> 709 µM	> 709 µM	> 709 µM	> 709 µM	> 709 µM	–
O=C(Nc1ccc(Cl)cc1)c1cc([N+](=O)[O-])ccc1O	> 874 µM	> 874 µM	> 874 µM	> 874 µM	> 874 µM	> 874 µM	> 874 µM	> 874 µM	CC50 at 24 h [24]: > 40 µM
CC(C)[C@H](NC(=O)OCc1ccccc1)C(=O)Oc1ccc([N+](=O)[O-])cc1C(=O)Nc1ccc(Cl)cc1	> 466 µM	> 466 µM	> 466 µM	> 466 µM	> 466 µM	> 466 µM	> 466 µM	> 466 µM	–
O=C(Nc1ccccc1)c1cc(Cl)ccc1O	516 µM (≈ 128 µg/mL)	129 µM (≈ 32 µg/mL)	1030 µM (≈ 256 µg/mL)	129 µM (≈ 32 µg/mL)	> 1030 µM	64.6 µM (≈ 16 µg/mL)	1.01 µM (≈ 0.25 µg/mL)	0.5 µM (≈ 0.124 µg/mL)	CC50 at 24 h [24]: > 40 µM
CC(C)[C@H](NC(=O)OCc1ccccc1)C(=O)Oc1ccc(Cl)cc1C(=O)Nc1ccc([N+](=O)[O-])cc1	> 486 µM	> 486 µM	> 486 µM	> 486 µM	> 486 µM	> 486 µM	> 486 µM	> 486 µM	–
O=C(Nc1ccc(C(F)(F)F)cc1)c1cc(Cl)ccc1O	25.3 µM (≈ 8 µg/mL)	0.792 µM (≈ 0.25 µg/mL)	> 810 µM	3.16 µM (≈ 0.998 µg/mL)	25.3 µM (≈ 8 µg/mL)	0.396 µM (≈ 0.125 µg/mL)	6.34 µM (≈ 2 µg/mL)	0.199 µM (≈ 0.0628 µg/mL)	FIC (Enterococcus faecalis [2]): 0.75 - 1.25; FIC (Enterococcus faecalis [5]): 1.008 - 1.5; Activity (Enterococcus faecalis [6]): 0.5 µg/mL; Activity (Enterococcus faecalis [8]): 0.25 µg/mL; Activity (Enterococcus faecalis [11]): 32 µg/mL; FIC (Enterococcus faecalis [12]): 0.625 - 1.25; FIC (Enterococcus faecalis [13]): 0.375 - 1.064; FIC (Enterococcus faecalis [14]): 1 - 1.25; FIC (Enterococcus faecalis [15]): 0.532 - 1.125; Activity (Enterococcus faecalis [25]): 128 µg/mL; Activity (Enterococcus faecalis [26]): 0.125 µg/mL; Activity (Enterococcus faecalis [16]): 32 µg/mL; FIC (Enterococcus faecalis [17]): 1.032 - 1.5; Activity (Enterococcus faecalis [19]): 8 µg/mL; Activity (Enterococcus faecalis [20]): 256 µg/mL; Activity (Enterococcus faecalis [21]): 0.125 µg/mL; Activity (Enterococcus faecalis [23]): 0.25 µg/mL
COc1ccc(NC(=O)c2cc(Cl)ccc2OC(=O)[C@@H](NC(=O)OCc2ccccc2)C(C)C)cc1	> 499 µM	> 499 µM	> 499 µM	> 499 µM	> 499 µM	> 499 µM	> 499 µM	> 499 µM	–
O=C(Nc1ccc(Cl)c(Cl)c1)c1ccc(Cl)cc1O	25.3 µM (≈ 8 µg/mL)	0.199 µM (≈ 0.063 µg/mL)	202 µM (≈ 63.9 µg/mL)	0.79 µM (≈ 0.25 µg/mL)	25.3 µM (≈ 8 µg/mL)	0.199 µM (≈ 0.063 µg/mL)	1.58 µM (≈ 0.5 µg/mL)	0.395 µM (≈ 0.125 µg/mL)	FIC (Enterococcus faecalis [2]): 0.629 - 1.128; FIC (Enterococcus faecalis [5]): 1.016 - 1.508; Activity (Enterococcus faecalis [6]): 0.032 µg/mL; Activity (Enterococcus faecalis [8]): 0.25 µg/mL; Activity (Enterococcus faecalis [11]): 256 µg/mL; FIC (Enterococcus faecalis [12]): 1.016 - 1.504; FIC (Enterococcus faecalis [13]): 1 - 1.25; FIC (Enterococcus faecalis [14]): 1.031 - 2.234; FIC (Enterococcus faecalis [15]): 0.756 - 1.25; Activity (Enterococcus faecalis [16]): 32 µg/mL; FIC (Enterococcus faecalis [17]): 1.016 - 1.504; selectivity ratio [27]: 128; Activity (Enterococcus faecalis [20]): 256 µg/mL; Activity (Enterococcus faecalis [21]): 0.032 µg/mL; CC50 at 24 h [24]: 25.6 µM
CN(C)[C@@H]1C(O)=C(C(N)=O)C(=O)[C@@]2(O)C(O)=C3C(=O)c4c(O)cccc4[C@@](C)(O)[C@H]3C[C@@H]12 [TETRACYCLINE]	–	144 µM (≈ 64 µg/mL)	–	144 µM (≈ 64 µg/mL)	–	144 µM (≈ 64 µg/mL)	–	–	–
